Test results published in patent US20040209283A1, “Continuous-read assay for the detection of de novo HCV RNA polymerase activity” (Pfizer Inc., priority 2002, published 2004).
Blank lines part the entries; values can stand above or below the compound they belong to.

Legend:
[1] = system: double-stranded NR-2; test: Binding of PicoGreen to double-stranded NR-2 at varying buffer component concentrations (fluorescence intensity); details: for Fluorescence Intensity (% of control ± SD; n = 2): 7 nM double-stranded NR2, 600 nM PicoGreen; for effect on the binding of PicoGreen to the double-stranded template: at the concentrations tested
Experimental: To assess the effect of buffer component concentration on the binding of PicoGreen® to double-stranded NR-2, mixtures containing 7 nM double-stranded NR2, 600 nM PicoGreen®, and varying concentrations of the buffer components were prepared, and the fluorescence intensities of these mixtures were measured. These mixtures were prepared using between 4 fold less to 1.25 to 2 fold more of the individual buffer components (relative to the amount of the components used in the reactions described in Example 1).

[2] = system: C delta 21 NS5B; test: Continuous-read fluorescence assay of de novo NS5B polymerase activity; assay type: biochemical, Hepatitis C virus (HCV)
Experimental: Reactions were prepared by first placing 0.5 μL of 100% DMSO into the wells of an assay plate (Corning, black, 384-well, NBS #3654). In reactions in which modulators or inhibitors of RNA polymerase activity are to be identified, a test compound may be added to the DMSO. A solution (Solution-1) containing 162 nM of C delta 21 NS5B and 28 nM NR-2 in an assay buffer comprising 20 mM Tris-HCl, pH 7.5; 100 mM ammonium acetate; 2 mM MnCl2; 10 mM DTT; and 2 mM CHAPS, was then prepared and incubated at ambient temperature for a minimum of 15 minutes. During this incubation, a second solution (Solution-2) was prepared by mixing 76 nM of PicoGreen® with 2.7 μM UTP, 2.7 μM CTP, 2.7 μM ATP, 67 μM GTP in the assay buffer that is described above. Next, 10 μL of Solution-1 was added to the wells of the assay plate containing DMSO and the plate was incubated for 15 minutes at ambient temperature. […]
The reactions were monitored on a LJL Analyst (Molecular Devices Corp.; Sunnyvale, Calif.), which excited the PicoGreen® at 485 nm and detected PicoGreen® fluorescence at 530 nm.
The effect of increasing concentrations of PicoGreen® on reaction kinetics was also assessed. […] The calculated initial velocity (v0=span x kexp) increased as the concentration of PicoGreen® was increased from 50 to 600 nM, and appeared to plateau at between 600 and 800 nM PicoGreen® (FIG. 5C).

[3] = component final concentration 0.5 mM
[4] = component final concentration 1 mM
[5] = component final concentration 2 mM
[6] = component final concentration 4 mM

Structure (SMILES): CC(=O)O.N [Ammonium Acetate]
inhibition of PicoGreen binding ([1]; at 100 mM): 5% | inhibition of PicoGreen binding ([1]; at 125 mM): 10% | Fluorescence Intensity (% of control ± SD; n = 2) ([1]; component final concentration 12.5 mM): 105 ± 1 % of control | Fluorescence Intensity (% of control ± SD; n = 2) ([1]; component final concentration 25 mM): 103 ± 1 % of control | Fluorescence Intensity (% of control ± SD; n = 2) ([1]; component final concentration 50 mM): 109 ± 1 % of control | Fluorescence Intensity (% of control ± SD; n = 2) ([1]; component final concentration 100 mM): 95 ± 1 % of control | Fluorescence Intensity (% of control ± SD; n = 2) ([1]; component final concentration 125 mM): 89 ± 2 % of control | effect on NS5B activity ([2]; 100 mM ammonium acetate): appeared to enhance NS5B activity

Structure (SMILES): C[C@H](CCC(=O)NCCC[N+](C)(C)CCCS(=O)(=O)[O-])[C@H]1CC[C@H]2[C@@H]3[C@H](O)C[C@@H]4C[C@H](O)CC[C@]4(C)[C@H]3C[C@H](O)[C@]12C [CHAPS]
effect on the binding of PicoGreen to the double-stranded template [1]: Neither DTT nor chaps affected the binding | Fluorescence Intensity (% of control ± SD; n = 2) [1, 3]: 98 ± 3 % of control | Fluorescence Intensity (% of control ± SD; n = 2) [1, 4]: 96 ± 1 % of control | Fluorescence Intensity (% of control ± SD; n = 2) [1, 5]: 96 ± 1 % of control | Fluorescence Intensity (% of control ± SD; n = 2) [1, 6]: 102 ± 1 % of control

Fluorescence Intensity (% of control ± SD; n = 2) ([1]; component final concentration 2.5 mM): 98 ± 5 % of control | Fluorescence Intensity (% of control ± SD; n = 2) ([1]; component final concentration 5 mM): 100 ± 2 % of control | Fluorescence Intensity (% of control ± SD; n = 2) ([1]; component final concentration 10 mM): 100 ± 1 % of control | Fluorescence Intensity (% of control ± SD; n = 2) ([1]; component final concentration 20 mM): 96 ± 3 % of control
Structure (SMILES): O[C@@H](CS)[C@@H](O)CS [DTT]
effect on the binding of PicoGreen to the double-stranded template [1]: Neither DTT nor chaps affected the binding

inhibition of the binding of PicoGreen to the template ([1]; at 2 mM): approximately 35% | inhibition of the binding of PicoGreen to the template ([1]; at 4 mM): ~55% | Fluorescence Intensity (% of control ± SD; n = 2) [1, 3]: 96 ± 2 % of control | Fluorescence Intensity (% of control ± SD; n = 2) [1, 4]: 82 ± 1 % of control | Fluorescence Intensity (% of control ± SD; n = 2) [1, 5]: 65 ± 1 % of control | Fluorescence Intensity (% of control ± SD; n = 2) [1, 6]: 45 ± 2 % of control
Structure (SMILES): [Cl][Mn][Cl] [MnCl2]

Structure (SMILES): CN(C)CCCN(CCCN(C)C)c1cc(C=C2Sc3ccccc3N2C)c2ccccc2[n+]1-c1ccccc1 [PicoGreen®, reference compound]
change of experimental rate constant (kexp) of the first-order reaction ([2]; at 600 nM PicoGreen): slightly less than a two-fold decrease
